Results taken from US20250163057A1, “DCN-1 MODULATING COMPOUNDS AND METHODS OF USE THEREOF” (Cellarity, Inc., priority 2023, published 2025).
Read-outs that look alike come from different tables or passages of the source.

Key:
[1] = system: fetal hemoglobin gene HBG1; assay: HBG1 Nanostring Assay in CD34+ HSPC erythroid differentiation culture; assay type: cell-based, human; conditions: for Nanostring Ymax obs (%): relative to a control compound (C1); for EC50: Homo sapiens, 240 h, HBG1 induction, Day10 of erythroid differentiation
Protocol: A Nanostring Assay was performed to evaluate the ability of the compounds to induce expression of the fetal hemoglobin gene HBG1 in cells. The data are shown as EC50, with stronger inducers having a lower EC50 value and higher YMax.
Forty eight hours later (day −2), the cells were passaged at a density of 200,000 cells/ml (100 ul/well in 96well culture plate) in complete expantion media. The cells were plated at 200,000 cells/ml on day 0 and day 3, 400,000 cells/ml on day 5 in phase 1 erythroid differentiation containing StemSpan with 2.5 U/mL of EPO (R&D systems, 287-TC-500), 0.5 mg/mL of Holo-Transferrin (Sigma, T0665-500MG), 1× Glutamine (Gluta-Max) (Gibco, 35050-061), 5 μL/mL Lipid Mixture (Sigma, L0288-100ML), 50 ng/mL SCF (R&D Systems, 255-SV-050), 10 ng/mL IL-3 (R&D Systems, 203-IL010) and 10 ng/mL Insulin (Sigma, I9278-5ML) all 200 μl per well in 96 well culture plate. Cells were then passaged at 500,000 cells/ml and 200 μl per well on day 7 in phase 2 Erythroid differentiation (Phase 1 erythroid differentiation removing IL-3) until collection day (Day10). The culture conditions were used for both control DMSO as well as experimental treatments.
For all cell pasagings, cells were centrifuged at 300 g for 8 minutes at room temperature and cell number were normalized by MANTIS and Integra VIAFLO 384. All the compounds are diluted in DMSO and added to complete media by Formulatrix FAST and mixed starting from day −2. Cells were counted by Luna cell counter with AOPI Staining Solution (Nexcelom Bioscience, CS2-0106-25 mL) on day-2. Cells were counted by BD FACSCelesta Flow Cytometer with CountBright™ Plus Absolute Counting Beads (Thermal Fisher Scientific, C36995) and SYTOX AADvanced™ Ready Flow™ Reagent (Invitrogen, R37173) for other passages. Cells were cultured at 37° C. and 5% CO2. DMSO concentration was kept at 0.1% to minimize any effects to the cells by the vehicle. […] Compound plates were kept at room temperature to protect from light to avoid multiple freeze and thaw cycle.
On the collection day (Day10), 100K cells were collected and stored at −80° C. For direct hybridization for Nanostring, 100K cell pellet was lyzed in 25 μL of RLT (QIAGEN, 79216) with 1×β-Mercaptoethanol (Gibco, 21985-023) and shaked at 300-500 RPM for 5 minutes at room temperature. Cell lysate was stored in −80° C. after lysis.
All hybridizations were done in a total volume of 15 μL (3 μL of RNA lysate added to master mix of 12 μL probe A/B, capture probe/reporter probes, proteinase K and attenuation oligos suspended in hybridization buffer). Samples were hybridized at 67° C. for 22 hr. Following hybridization, the tripartide complexes were purified, immobilized by nCounter Prep Station and imaged by Digital Analyzer (nCounter MAX/FLEX Analysis System), to generate digital counts of barcodes corresponding to each target in the multiplexed reaction. Labeled barcodes obtained from unamplified extracts were counted at 555 images or field of view (FOV). The barcode counts for each sample were recorded in Reporter Code Count (RCC) files that are imported into nSolver analysis software (provided with CodeSet by NS) for quality control evaluation.
The quality control (QC) metric included limit of detection QC by checking for wells with less than 100 total counts for positive controls.
Hybridization signals were normalized against the ERCC positive controls and CodeSet Content (housekeeping gene). Briefly, this involved first calculating a sample-specific scaling factor by calculating arithmetic mean of geomeans of all ERCC positive controls with counts more than zero in all samples. Then this arithmetic mean was divided by the geometric mean of each lane to generate a lane-specific normalization factor. All negative controls and target-specific signal values were then normalized by multiplying counts values with their sample-specific scaling factor. The acceptable range for scaling factors is 0.3-3.0. […]

[2] = system: Cullin-3 (CUL3) neddylation; assay: AlphaLISA assay for Cullin-3 (CUL3) neddylation in TF 1 cells; assay type: cell-based; conditions: Homo sapiens, TF-1, 3 h, 3 hours treatment
Procedure, shortened: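 TF 1 cells in unsupplemented IMDM treated with compound concentrations for 3 h, then lysed. CUL3 neddylation detected by AlphaLISA (biotinylated anti-NEDD8, anti-CUL3 acceptor beads overnight, streptavidin donor beads 1 h); normalized to vehicle (0%) and 1 μM DI-1548 (100%), IC50 from Hill fits.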

[3] = target: DCN1 (DCUND1) protein PONY domain (Homo sapiens (Human), UniProt Q96GG9); assay: TR-FRET assay, DCN1 binding with FAM-labeled probe
Procedure, shortened: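 Binding was read as the TR-FRET ratio between a FAM-tagged inhibitor probe and Tb-labeled biotinylated E. coli-expressed DCN1 PONY domain, measured 1, 5 and 24 h after compound addition. The two setups used 5 nM protein/20 nM FAM-probe or 0.31 nM protein/900 nM total probe (100 nM labeled), in TritonX buffer with 200 mM NaCl.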

[4] = target: DCN1 protein (Homo sapiens (Human), UniProt Q96GG9); assay: Intact Protein MS Analysis with the RapidFire-TOF System (covalent adduct formation); assay type: binding; conditions: MS Emax; 400 nM DCN1, 3 hours at room temperature
Procedure, shortened: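 Tag-cleaved human DCN1 (400 nM) expressed in E. coli, in 25 mM Tris-HCl, 200 mM NaCl, 1 mM DTT, was incubated with 11 compound concentrations for 3 h at room temperature and quenched with 0.2% formic acid. Intact-protein Q-TOF MS with deconvolution detected the compound adduct mass.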

[5] = 24 hr after treatment with compound, read-out: TR FRET IC50 24 hr
[6] = read-out: TR FRET IC50 1 hr, 1 hr after treatment with compound
[7] = TR FRET IC50 1 hr (nM), 1 hr after treatment with compound

Sequence of DCN1 (DCUND1) protein PONY domain (Q96GG9 60-248): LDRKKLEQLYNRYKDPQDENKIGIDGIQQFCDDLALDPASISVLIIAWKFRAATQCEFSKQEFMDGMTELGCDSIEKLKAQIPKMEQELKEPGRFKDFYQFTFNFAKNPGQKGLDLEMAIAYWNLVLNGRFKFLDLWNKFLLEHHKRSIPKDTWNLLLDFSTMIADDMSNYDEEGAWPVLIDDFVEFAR
Sequence of DCN1 protein (Q96GG9 whole entry): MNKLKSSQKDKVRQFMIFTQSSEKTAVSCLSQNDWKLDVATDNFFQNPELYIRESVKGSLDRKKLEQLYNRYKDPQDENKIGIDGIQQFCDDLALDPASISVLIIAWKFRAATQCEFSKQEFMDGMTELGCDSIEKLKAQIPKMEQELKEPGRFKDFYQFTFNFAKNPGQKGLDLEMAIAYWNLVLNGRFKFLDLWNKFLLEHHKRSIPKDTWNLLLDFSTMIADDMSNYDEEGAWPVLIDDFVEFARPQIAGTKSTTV

Row | SMILES | Nanostring Ymax obs (%) [1] | IC50 [2] | IC50 [3, 5] | IC50 [3, 6] | EC50 [1] | IC50 [3, 7] | % Adduct Formation [4]
1 | C=C(CN1CC2(CCOC2)C1)C(=O)NCc1nn(-c2ccccc2)c2c1[C@H](c1ccc(F)cc1)[C@H](NC(=O)c1cccc(C(F)(F)F)c1)C(=O)N2CC [Compound I-677] | +++ (Nanostring Ymax greater than 100.0) | ≤ 100 nM | ≤ 200 nM | ≤ 200 nM | – | – | –
2 | C=C(CN1C2CCC1COC2)C(=O)NCc1nn(-c2ccccc2)c2c1[C@H](c1ccc(F)cc1)[C@H](NC(=O)c1cccc(C(F)(F)F)c1)C(=O)N2CC (mixture of isomers) [Compound I-613] | +++ (Nanostring Ymax greater than 100.0) | ≤ 100 nM | ≤ 200 nM | ≤ 200 nM | – | – | –
3 | CCN1C(=O)[C@H](NC(=O)c2cccc(C(F)(F)F)c2)[C@H](c2ccc(F)cc2)c2c(C(=O)N3C[C@H](F)C[C@@H]3C#N)nn(-c3ccccc3)c21 (mixture of isomers) [Compound I-253, N-((4RS,5RS)-3-((2R,4R)-2-cyano-4-fluoropyrrolidine-1-carbonyl)-7-ethyl-4-(4-fluorophenyl)-6-oxo-1-phenyl-4,5,6,7-tetrahydro-1H-pyrazolo[3,4-b]pyridine-5-yl)-3-(trifluoromethyl)benzamide] | ++ (Nanostring Ymax greater than 50.0 and less than or equal to 100.0) | ≤ 100 nM | ≤ 200 nM | – | > 1000 nM | 1000 to 3000 nM | –
4 | C=C(C(=O)NCc1nn(-c2ccccc2)c2c1[C@H](c1ccc(F)cc1)[C@H](NC(=O)c1cccc(C(F)(F)F)c1)C(=O)N2CC)C(C)N1CCOCC1 (mixture of isomers) [Compound I-89] | ++ (Nanostring Ymax greater than 50.0 and less than or equal to 100.0) | ≤ 100 nM | ≤ 200 nM | ≤ 200 nM | – | – | –
5 | C=CS(=O)(=O)NCc1nn(-c2ccccc2)c2c1[C@H](c1ccc(F)cc1)[C@H](NC(=O)c1cccc(C(F)(F)F)c1)C(=O)N2CC (racemic) [Compound I-230] | ++ (Nanostring Ymax greater than 50.0 and less than or equal to 100.0) | ≤ 100 nM | – | – | > 1000 nM | – | –
6 | CCN1C(=O)[C@@H](NC(=O)c2cccc(C(F)(F)F)c2)[C@@H](c2ccc(F)cc2)c2c(C(=O)N(C)[C@@H](C#N)C3COC3)nn(-c3ccccc3)c21 (single isomer, unassigned) [Compound I-291] | – | ≤ 100 nM | ≤ 200 nM | ≤ 200 nM | – | – | +++ (MS Emax % adduct formation greater than 80.0 and less than or equal to 100.0)
7 | CCN1C(=O)[C@@H](NC(=O)c2cccc(C(F)(F)F)c2)[C@@H](c2ccc(F)cc2)c2c(C(=O)N3CCOC[C@@H]3C#N)nn(-c3ccccc3)c21 (mixture of isomers) [Compound I-297] | – | ≤ 100 nM | ≤ 200 nM | – | – | 1000 to 3000 nM | +++ (MS Emax % adduct formation greater than 80.0 and less than or equal to 100.0)
8 | CCN1C(=O)[C@@H](NC(=O)c2cccc(C(F)(F)F)c2)[C@@H](c2ccc(F)cc2)c2c(C(=O)N(CC#N)CC#N)nn(C3CCOCC3)c21 [Compound I-365] | – | ≤ 100 nM | ≤ 200 nM | ≤ 200 nM | – | – | +++ (MS Emax % adduct formation greater than 80.0 and less than or equal to 100.0)
9 | CCN1C(=O)[C@@H](NC(=O)c2cccc(C(F)(F)F)c2)[C@H](c2ccc(F)cc2)c2c(CNC(=O)CC#N)nn(-c3ccccc3)c21 [Compound I-299] | – | 100 to 1000 nM | 200 to 1000 nM | ≤ 200 nM | – | – | + (MS Emax % adduct formation greater than or equal to 0.0 and less than or equal to 30.0)
10 | CCN1C(=O)[C@@H](NC(=O)c2cccc(C(F)(F)F)c2)[C@@H](c2ccc(F)cc2)c2c(C(=O)N(CC#N)CC(=O)OC)nn(-c3ccccc3)c21 (stereo in doubt) [Compound I-287] | – | ≤ 100 nM | ≤ 200 nM | ≤ 200 nM | – | – | +++ (MS Emax % adduct formation greater than 80.0 and less than or equal to 100.0)
11 | CCN1C(=O)[C@@H](NC(=O)c2cccc(C(F)(F)F)c2)[C@@H](C2CC2)c2c(C(=O)N(CC#N)CC#N)nn(C3CCOCC3)c21 [Compound I-373] | – | ≤ 100 nM | ≤ 200 nM | ≤ 200 nM | – | – | ++ (MS Emax % adduct formation greater than 30.0 and less than or equal to 80.0)
12 | N#C[C@@H]1C[C@H]2C[C@H]2N1C(=O)c1nn(C2CCOCC2)c2c1[C@H](C1CC1)[C@H](NC(=O)c1cccc(C(F)(F)F)c1)C(=O)N2 (mixture of isomers) [Compound I-385] | – | ≤ 100 nM | ≤ 200 nM | – | – | 1000 to 3000 nM | +++ (MS Emax % adduct formation greater than 80.0 and less than or equal to 100.0)
13 | CCN1C(=O)[C@@H](NC(=O)c2cccc(C(F)(F)F)c2)[C@@H](c2ccc(F)cc2)c2c(C(=O)N(CC#N)CCN3CC4CCC(C3)O4)nn(-c3ccccc3)c21 (mixture of isomers) [Compound I-324] | – | ≤ 100 nM | ≤ 200 nM | – | – | 200 to 1000 nM | +++ (MS Emax % adduct formation greater than 80.0 and less than or equal to 100.0)
14 | CCN1C(=O)[C@@H](NC(=O)c2cccc(C(F)(F)F)c2)[C@@H](c2ccc(F)cc2)c2c(C(=O)N(C)[C@@H](C#N)CCN3CCC34COC4)nn(-c3ccccc3)c21 [Compound I-315] | – | ≤ 100 nM | ≤ 200 nM | ≤ 200 nM | – | – | +++ (MS Emax % adduct formation greater than 80.0 and less than or equal to 100.0)
15 | CCN1C(=O)[C@@H](NC(=O)c2cccc(C(F)(F)F)c2)[C@@H](C2CCC2)c2c(C(=O)N(C)C(C)C#N)nn(C3CCOCC3)c21 (stereo partly drawn) [Compound I-375] | – | ≤ 100 nM | ≤ 200 nM | ≤ 200 nM | – | – | +++ (MS Emax % adduct formation greater than 80.0 and less than or equal to 100.0)
